Results published in patent US20040121968A1, “Antiangiogenesis by inhibiting protein kinase CK2 activity” (priority 2002, published 2004).

Legend:
[1] = tested on: retinal endothelial cells (REC); assay: Migration (wound healing) assay; assay type: cell-based, bovine; conditions: for inhibition of REC migration: basal and growth factor-stimulated (quercetin 50 μM, emodin, DRB 20-25 μM), H-7: preliminary, not shown; for effect on growth factor-mediated cell migration: bovine REC, four GFs (IGF-1+FGF-2+VEGF+PlGF) 10 ng/ml each, 7 days, 0.5% serum, emodin 10 μM, DRB 15 μM
Protocol: Migration assay. REC migration rates were examined in a wound healing assay, where cells migrate over time into the scrape wound in a monolayer. Briefly, cells were seeded in 24-well plates and allowed to reach confluence in growth medium. Prior to growth factor treatment, cells were serum-starved overnight in incomplete BREC medium with 0.5% FCS. All monolayers within an experiment were wounded with a single sterile wood stick of constant diameter, to ensure uniformity in the wound areas among different treatments. Wounded monolayers were then rinsed with low-serum medium to remove detached cells and treated with various combinations of human growth factors at 10 ng/mL each. On day 7, cells were rinsed 3× with PBS and fixed with methanol for 15 min, rehydrated with dH2O and stained with Meyer's hematoxylin for 5 min, followed by destaining with dH2O. All wells were photographed with a 4× or 10× objective using a Kodak MDS 100 digital camera attached to a Leitz DM IL inverted microscope. The original wound area was measured at 0 hr and used as a baseline for comparison to the treated wells at the conclusion of the experiment. The number of cells migrated into the wound was determined. Migrating cell counting was automated using the AAB (Advanced American Biotechnology, Fullerton, Calif.) software. Data were calculated and statistically analyzed (Spirin K S et al., Basement membrane and growth factor gene expression in normal and diabetic human retinas, Curr. Eye Res. 18:490-499 [1999]) relative to control cultures that received the same concentrations of bovine serum albumin instead of growth factors and/or inhibitor, compared to vehicle instead of inhibitor after wounding. Inhibitors were added 30 min before growth factors.

[2] = tested on: retinal endothelial cells (REC); assay: Secondary sprouting assay on Matrigel; assay type: cell-based, bovine; conditions: for inhibition of REC secondary sprouting: basal and growth factor-stimulated (quercetin 50 μM, emodin, DRB 20-25 μM), H-7: preliminary, not shown
Protocol: (§1) In vitro Matrigel™ assay of capillary-like tube formation and secondary sprouting. […] Briefly, 50 μL of reconstituted basement membrane matrix from mouse EHS tumor (BD or GFR Matrigel™; Becton Dickinson Labware, Bedford, Mass.) were dispensed with frozen pipettes into each well of a previously frozen, sterile 96-well plate sitting on wet ice and allowed to solidify for 1 hr at room temperature or 37° C. Approximately 5×10^4 or 7.5×10^4 REC in a 100 μL volume were seeded into each triplicate well. Human recombinant or purified growth factors were added to a final concentration of 10 ng/mL (or as noted) in 0.5% FCS incomplete BREC medium. Capillary-like tube structures formed by REC on reconstituted basement membrane matrix were photographed at various intervals ranging from 12-72 hr; pictures were scanned, digitized and analyzed using image-processing software. For the secondary sprouting assay, cells on reconstituted basement membrane matrix (BD Matrigel™) were seeded as above but incubated in 0.5% FCS incomplete BREC medium without any growth factors for 3 days, allowing for tube formation and collapse. On day 3, human recombinant or purified growth factors were added to a final concentration of 10 ng/mL (or as noted) in low-serum incomplete BREC medium and incubated for another 5-6 days. Digital photographs were obtained with a Kodak MDS 100 camera attached to a Leitz DM IL inverted microscope. Digitized images obtained with a Kodak MDS 100 video camera were stored on compact discs and quantified with NIH Image 1.62 software. The number of living cells in the sprouting colonies were determined using the MTS cell proliferation assay.
(§2) The cells form tubes on Matrigel™ by 16 hr, and by 48 hr, without TN-C or growth factors, the tubes collapse. Secondary sprouting with Matrigel™ invasion starts by day four in culture. Cultures were monitored microscopically. Culture medium with or without growth factors or inhibitors was changed every two-three days.

[3] = tested on: oxygen-induced retinopathy in newborn mice; assay: Oxygen-induced retinopathy in newborn mice (retinal neovascularization); assay type: in vivo, mouse; conditions: for retinal neovascularization diminished by: two intraperitoneal injections daily, day 11-17 after birth, emodin 20-30 μg/g, vs untreated or vehicle-treated
[4] = tested on: retinal endothelial cells (REC); assay: REC proliferation assay (MTS cell number); assay type: cell-based, bovine; conditions: for inhibition of REC proliferation: basal and growth factor-stimulated (quercetin 50 μM, emodin, DRB 20-25 μM), H-7: preliminary, not shown
Protocol: REC proliferation and survival assays. 96-well plates were coated with various amounts of TN-C or vehicle. […] Cell numbers were determined on days 4-7 using the MTS cell proliferation assay (Promega Corp.) according to manufacturer's instructions. Survival was measured in the same way using high glucose (30 mM) or chemical hypoxia (2 mM sodium azide) or serum-free medium to induce cell death. Cell numbers were determined on days 4-7 using MTS assay (Promega).

[5] = Solubility in water / vehicle; assay type: physicochemical
[6] = tested on: retinal endothelial cells (REC); assay: Matrigel assay of capillary-like tube formation; assay type: cell-based, bovine; conditions: for inhibition of REC tube formation: basal and growth factor-stimulated (quercetin 50 μM, emodin, DRB 20-25 μM)
Protocol: as §1, §2

[7] = tested on: retinal endothelial cells (REC); assay: REC survival assay (low serum, MTS cell number); assay type: cell-based, bovine
Protocol: REC proliferation and survival assays. 96-well plates were coated with various amounts of TN-C or vehicle. 5×10^3 cells were added to each triplicate well in low-serum REC medium with various amounts of growth factors (0.5% FCS incomplete BREC medium containing 10 ng/ml of human IGF-I, FGF-2, VEGF, PlGF and PDGF-BB [R&D Systems Inc., Minneapolis, Minn.]). Cell numbers were determined on days 4-7 using the MTS cell proliferation assay (Promega Corp.) according to manufacturer's instructions. Survival was measured in the same way using high glucose (30 mM) or chemical hypoxia (2 mM sodium azide) or serum-free medium to induce cell death. Cell numbers were determined on days 4-7 using MTS assay (Promega).

[8] = tested on: normal REC and DR REC gene expression; assay: Gene array analysis of growth factor action on normal and DR REC; assay type: cell-based, human; conditions: 10 ng/mL growth factor, seven days, 0.5% serum
Protocol: Normal REC and DR REC gene expression patterns were compared by gene array analysis. Normal, diabetic and DR autopsy human eyes are obtained from National Disease Research Interchange (NDRI), within 24 hours after death. These eyes are used to isolate REC for culture as described hereinabove. Cultures can be used up to the fourth passage, and viable cultures can be cryogenically stored. Cultures of normal, diabetic and DR REC are established from autopsy human eyes and routinely checked for purity using von Willebrand factor immunostaining as described hereinabove. Cells are cultured in 50% F-12, 50% low-glucose DMEM with antibiotics/antimycotics (GIBCO/BRL), insulin-transferrin-selenite, ECGS (Sigma Chemical Co.), and 20% FCS. Statistical analysis of results is done with GraphPad Prism software (GraphPad Software).
In experiments, normal, diabetic, and DR REC were grown for seven days with or without 10 ng/ml VEGF, or 10 ng/mL IGF-I, or 10 ng/mL each VEGF and IGF-I, in medium with 0.5% serum. Long-term rather than short-term treatment was chosen because diabetes develops over a considerable time period. RNA isolated from REC was reverse-transcribed using Smart™ cDNA synthesis method (Clontech), to produce full-length cDNA. Two normal cases or two DR cases were pooled together. This cDNA was PCR-amplified with a short number of cycles and used as a probe for Clontech Atlas Human 1.2 1,200-gene arrays, according to the manufacturer's instructions. This technique had previously been refined and verified by Northern analysis and fully correlated gene array data with protein expression. (Spirin K S et al., Analysis of gene expression in human bullous keratopathy corneas containing limiting amounts of RNA, Invest. Ophthalmol. Vis. Sci. 40:3108-3115 [1999]). Samples were normalized to several housekeeping genes and the analysis was done with available AtlasImage 2.0 software (Clontech). Signal ratio>2 between samples was considered significant as per manufacturer's recommendation.

[9] = emodin-treated vs vehicle control
[10] = growth factors at 10 ng/ml each

Cc1cc(O)c2c(c1)C(=O)c1cc(O)cc(O)c1C2=O [emodin, 3-methyl-1,6,8-trihydroxyanthraquinone]
inhibition of REC migration [1]: potently inhibited
effect on growth factor-mediated cell migration [1]: significant inhibitory effect
inhibition of REC secondary sprouting [2]: potently inhibited
neovascular tufts in fluorescein angiograms [3, 9]: much less pronounced
retinal vascularization in fluorescein angiograms [3, 9]: significantly less vascularization
retinal neovascularization diminished by [3]: 70-75%
inhibition of REC proliferation [4]: potently inhibited
solubility in water [5]: not easily dissolved in water
solubility in vehicle ([5]; phosphate-buffered saline with 20% PEG 400 + 2% Tween-80, pH 7.2): did not ensure emodin solubility
inhibition of REC tube formation [6]: potently inhibited

O=c1c(O)c(-c2ccc(O)c(O)c2)oc2cc(O)cc(O)c12 [quercetin]
inhibition of REC migration [1]: potently inhibited
inhibition of REC secondary sprouting [2]: potently inhibited
effect on retinal neovascularization ([3]; intramuscular injections, data not shown): substantial effect
inhibition of REC proliferation [4]: potently inhibited
inhibition of REC tube formation [6]: potently inhibited

VEGF
growth factor effect on REC migration [1, 10]: significantly enhanced
growth factor effect on REC survival [7, 10]: little effect
expression of pro-apoptotic genes [8]: did not display an increase
expression of proliferation-related genes [8]: upregulated

FGF-2: fibroblast growth factor (FGF)-2
growth factor effect on secondary sprouting (in words) ([2]; 10 ng/mL growth factor): greatly enhanced
stimulation of secondary sprouting (fold) ([2]; growth factors, on average): four-fold

CC1CNCCN1S(=O)(=O)c1cccc2cnccc12 (stereo not drawn) [H-7]
inhibition of REC migration [1]: inhibited
inhibition of REC secondary sprouting [2]: inhibited
inhibition of REC proliferation [4]: inhibited
effect on REC tubes on Matrigel ([6]; preliminary results, not shown): stabilized

IGF-I: insulin-like growth factor (IGF)-I
expression of pro-apoptotic genes [8]: decrease

OC[C@H]1O[C@@H](n2cnc3cc(Cl)c(Cl)cc32)[C@H](O)[C@@H]1O [DRB, 5,6-dichloro-1-β-D-ribofuranosylbenzimidazole]
inhibition of REC migration [1]: potently inhibited
effect on growth factor-mediated cell migration [1]: significant inhibitory effect
effect on number of live cells (survival) ([7]; bovine REC, 0.5% serum, various concentrations, day 6, MTS): significantly lowers cell number
inhibition of REC secondary sprouting [2]: potently inhibited
concentration from which cell number in secondary sprouting is significantly decreased ([2]; bovine REC on Matrigel, 0.5% serum, day 9, MTS): ≥ 25 µM
retinal neovascularization diminished by [3]: about 60%
inhibition of REC proliferation [4]: potently inhibited
effect on number of live cells (proliferation) ([4]; bovine REC, 10% serum, various concentrations, day 6, MTS): significantly lowers cell number
solubility in water [5]: not easily dissolved in water
inhibition of REC tube formation [6]: potently inhibited
